# From ChEMBL document CHEMBL1795325, “Studying synergism of methyl linked cyclohexyl thiophenes with triazole: synthesis and their cdk5/p25 inhibition activity” (Eur J Med Chem, 2011)
# Key:
# [1] = system: Vero; assay: Cytotoxicity against african green monkey Vero C1008 cells at 6.25 to 50 ug/ml by neutral red uptake assay; type: cell-based; conditions: chlorocebus sabaeus
# [2] = target: Cyclin-dependent kinase 5/CDK5 activator 1 (Homo sapiens, UniProt Q00535); type: protein-complex assay
# [3] = Selectivity ratio, ratio of IC50 for CDK2/Cyclin E to IC50 for CDK5/p25
# [4] = target: Cyclin-dependent kinase 2/cyclin E1 (Homo sapiens, UniProt P24941); assay: Inhibition of CDK2/Cyclin E by scintillation proximity assay; type: protein-complex assay
# Chain of Cyclin-dependent kinase 5/CDK5 activator 1 (Q00535 whole entry): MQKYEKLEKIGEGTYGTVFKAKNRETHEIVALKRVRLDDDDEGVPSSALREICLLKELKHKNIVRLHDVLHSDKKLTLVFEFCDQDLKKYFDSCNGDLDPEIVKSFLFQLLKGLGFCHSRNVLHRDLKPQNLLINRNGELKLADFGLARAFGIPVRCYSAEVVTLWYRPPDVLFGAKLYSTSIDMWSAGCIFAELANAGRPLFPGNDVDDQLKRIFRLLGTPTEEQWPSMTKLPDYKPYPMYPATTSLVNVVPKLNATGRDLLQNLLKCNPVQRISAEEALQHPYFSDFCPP
# Chain of Cyclin-dependent kinase 5/CDK5 activator 1 (Q15078 whole entry, further chain): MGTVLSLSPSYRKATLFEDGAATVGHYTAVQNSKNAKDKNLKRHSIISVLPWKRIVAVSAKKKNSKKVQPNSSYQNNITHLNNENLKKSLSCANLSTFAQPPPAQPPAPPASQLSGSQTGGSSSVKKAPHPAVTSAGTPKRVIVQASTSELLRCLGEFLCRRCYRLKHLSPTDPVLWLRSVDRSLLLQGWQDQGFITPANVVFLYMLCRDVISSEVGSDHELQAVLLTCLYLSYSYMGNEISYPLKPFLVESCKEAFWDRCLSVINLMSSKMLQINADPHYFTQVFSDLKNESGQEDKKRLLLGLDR
smiles,measurement,setting,value
O=C(CSc1nnc(Cc2c(NC(=O)CCl)sc3c2CCCC3)n1NC(=O)c1ccccc1)NNC(=O)c1ccccc1,Activity,[1],Non-toxic
same,IC50,[2],468 nM
O=C(CSc1nnc(Cc2c(NC(=O)CCl)sc3c2CCCC3)n1NC(=O)c1ccc(Cl)cc1)NNC(=O)c1ccccc1,Activity,[1],Non-toxic
same,IC50,[2],617 nM
O=C(CCl)Nc1sc2c(c1Cc1n[nH]c(=S)n1NC(=O)c1ccc(Cl)cc1)CCCC2,Activity,[1],Non-toxic
same,IC50,[2],343 nM
O=C(CCl)NNC(=O)CSc1nnc(Cc2c(NC(=O)CCl)sc3c2CCCC3)n1NC(=O)c1ccccc1,Activity,[1],Non-toxic
same,IC50,[2],532 nM
CC(=O)NNC(=O)CSc1nnc(Cc2c(NC(=O)CCl)sc3c2CCCC3)n1NC(=O)c1ccccc1,Activity,[1],Non-toxic
same,IC50,[2],350 nM
CC(=O)Nn1c(Cc2c(NC(=O)CCl)sc3c2CCCC3)nnc1SCC(=O)NN,Ratio IC50,[3],98.1
same,Activity,[1],Non-toxic
same,IC50,[2],61 nM
same,IC50,[4],5990 nM
Nn1c(S)nnc1CSc1nnc(Cc2c(NC(=O)CCl)sc3c2CCCC3)n1NC(=O)c1ccc(Cl)cc1,Activity,[1],Non-toxic
same,IC50,[2],2860 nM
CC(=O)Nc1sc2c(c1CC(=O)NNC(=S)[S-])CCCC2.[K+],Activity,[1],Non-toxic
same,IC50,[2],346 nM
O=C(CCl)NNC(=O)CSc1nnc(Cc2c(NC(=O)CCl)sc3c2CCCC3)n1NC(=O)c1ccc(Cl)cc1,Activity,[1],Non-toxic
same,IC50,[2],229 nM
CC(=O)Nn1c(Cc2c(NC(=O)CCl)sc3c2CCCC3)nnc1SCSc1nnc(Cc2c(NC(=O)CCl)sc3c2CCCC3)n1NC(C)=O,Activity,[1],Non-toxic
same,IC50,[2],849 nM
CC(=O)Nc1sc2c(c1Cc1nnc(S)n1N)CCCC2,Activity,[1],Non-toxic
same,IC50,[2],386 nM
O=C(CSc1nnc(Cc2c(NC(=O)CCl)sc3c2CCCC3)n1NC(=O)c1ccccc1)N/N=C/c1ccccc1,Ratio IC50,[3],> 17.5
same,Activity,[1],Non-toxic
same,IC50,[2],32 nM
same,IC50,[4],560 nM
O=C(CCl)Nc1sc2c(c1Cc1nnc(SCSc3nnc(Cc4c(NC(=O)CCl)sc5c4CCCC5)n3NC(=O)c3ccccc3)n1NC(=O)c1ccccc1)CCCC2,Activity,[1],Non-toxic
same,IC50,[2],669 nM
O=C(CCl)Nc1sc2c(c1Cc1n[nH]c(=S)n1NC(=O)c1ccccc1)CCCC2,Activity,[1],Non-toxic
same,IC50,[2],751 nM
N#CCSc1nnc(Cc2c(NC(=O)CCl)sc3c2CCCC3)n1NC(=O)c1ccccc1,Activity,[1],Non-toxic
same,IC50,[2],657 nM
NNC(=O)CSc1nnc(Cc2c(NC(=O)CCl)sc3c2CCCC3)n1NC(=O)c1ccc(Cl)cc1,Ratio IC50,[3],20.5
same,Activity,[1],Non-toxic
same,IC50,[2],39 nM
same,IC50,[4],799 nM
CC(=O)Nn1c(Cc2c(NC(=O)CCl)sc3c2CCCC3)nnc1SCC(=O)NNC(=O)c1ccccc1,Activity,[1],Non-toxic
same,IC50,[2],363 nM
N#CCSc1nnc(Cc2c(NC(=O)CCl)sc3c2CCCC3)n1NC(=O)c1ccc(Cl)cc1,Ratio IC50,[3],19.6
same,Activity,[1],Non-toxic
same,IC50,[2],58 nM
same,IC50,[4],1140 nM
CC(=O)Nn1c(Cc2c(NC(=O)CCl)sc3c2CCCC3)nnc1SCc1n[nH]c(=S)n1N,Activity,[1],Non-toxic
same,IC50,[2],4030 nM
CC(=O)Nn1c(Cc2c(NC(=O)CCl)sc3c2CCCC3)n[nH]c1=S,Activity,[1],Non-toxic
same,IC50,[2],689 nM
O=C(CCl)Nc1sc2c(c1Cc1nnc(SCSc3nnc(Cc4c(NC(=O)CCl)sc5c4CCCC5)n3NC(=O)c3ccc(Cl)cc3)n1NC(=O)c1ccc(Cl)cc1)CCCC2,Activity,[1],Non-toxic
same,IC50,[2],340 nM
Nn1c(S)nnc1CSc1nnc(Cc2c(NC(=O)CCl)sc3c2CCCC3)n1NC(=O)c1ccccc1,Activity,[1],Non-toxic
same,IC50,[2],6180 nM
COC(=O)CSc1nnc(Cc2c(NC(=O)CCl)sc3c2CCCC3)n1NC(=O)c1ccccc1,Activity,[1],Non-toxic
same,IC50,[2],681 nM
O=C(O)CCNc1sc2c(c1CC(=O)NNC(=S)[S-])CCCC2.[K+],Activity,[1],Non-toxic
same,IC50,[2],397 nM
CC(=O)Nn1c(Cc2c(NC(=O)CCl)sc3c2CCCC3)nnc1SCC(=O)N/N=C/c1ccccc1,Activity,[1],Non-toxic
same,IC50,[2],336 nM
O=C(CSc1nnc(Cc2c(NC(=O)CCl)sc3c2CCCC3)n1NC(=O)c1ccc(Cl)cc1)N/N=C/c1ccccc1,Ratio IC50,[3],1.4
same,Activity,[1],Non-toxic
same,IC50,[2],35 nM
same,IC50,[4],48 nM
CC(=O)NNC(=O)CSc1nnc(Cc2c(NC(=O)CCl)sc3c2CCCC3)n1NC(=O)c1ccc(Cl)cc1,Activity,[1],Non-toxic
same,IC50,[2],468 nM
CC(=O)Nn1c(Cc2c(NC(=O)CCl)sc3c2CCCC3)nnc1SCC#N,Ratio IC50,[3],21.6
same,Activity,[1],Non-toxic
same,IC50,[2],61 nM
same,IC50,[4],1320 nM
CC(=O)Nn1c(Cc2c(NC(=O)CCl)sc3c2CCCC3)nnc1SCC(=O)NNC(=O)CCl,Activity,[1],Non-toxic
same,IC50,[2],452 nM
CC(=O)NNC(=O)CSc1nnc(Cc2c(NC(=O)CCl)sc3c2CCCC3)n1NC(C)=O,Activity,[1],Non-toxic
same,IC50,[2],454 nM
COC(=O)CSc1nnc(Cc2c(NC(=O)CCl)sc3c2CCCC3)n1NC(=O)c1ccc(Cl)cc1,Activity,[1],Non-toxic
same,IC50,[2],443 nM
O=C(CSc1nnc(Cc2c(NC(=O)c3ccccc3)sc3c2CCCC3)n1NC(=O)c1ccc(Cl)cc1)NNC(=O)c1ccccc1,IC50,[2],483 nM
CC(=O)Nc1sc2c(c1Cc1nnc(SCC(=O)NNC(=O)c3ccccc3)n1NC(=O)c1ccccc1)CCCC2,IC50,[2],413 nM
CC(=O)Nc1sc2c(c1Cc1nnc(SCC(=O)NNC(=O)CCl)n1NC(=O)c1ccc(Cl)cc1)CCCC2,IC50,[2],260 nM
COC(=O)CSc1nnc(Cc2c(NC(=O)c3ccccc3)sc3c2CCCC3)n1NC(C)=O,IC50,[2],567 nM
Nn1c(S)nnc1Cc1c(NC(=O)CCl)sc2c1CCCC2,Ratio IC50,[3],1.2
same,Activity,[1],Non-toxic
same,IC50,[2],43 nM
same,IC50,[4],52 nM
CC(=O)Nc1sc2c(c1Cc1nnc(SCC(=O)NN)n1NC(=O)c1ccc(Cl)cc1)CCCC2,Ratio IC50,[3],9.2
same,IC50,[2],64 nM
same,IC50,[4],587 nM
O=C(Cc1c(NC(=O)CCl)sc2c1CCCC2)NNC(=S)[S-].[K+],Activity,[1],Non-toxic
same,IC50,[2],247 nM
CC(=O)Nc1sc2c(c1Cc1nnc(SCC(=O)NN)n1NC(=O)c1ccccc1)CCCC2,IC50,[2],192 nM
CC(=O)Nn1c(Cc2c(NC(=O)c3ccccc3)sc3c2CCCC3)nnc1SCC(=O)NNC(=O)c1ccccc1,IC50,[2],411 nM
Nn1c(CSc2nnc(Cc3c(NC(=O)c4ccccc4)sc4c3CCCC4)n2NC(=O)c2ccccc2)n[nH]c1=S,IC50,[2],4590 nM
CC(=O)NNC(=O)CSc1nnc(Cc2c(NC(C)=O)sc3c2CCCC3)n1NC(C)=O,IC50,[2],327 nM
Nn1c(S)nnc1Cc1c(NCCC(=O)O)sc2c1CCCC2,Activity,[1],Non-toxic
same,IC50,[2],268 nM
NNC(=O)CSc1nnc(Cc2c(NC(=O)c3ccccc3)sc3c2CCCC3)n1NC(=O)c1ccc(Cl)cc1,IC50,[2],236 nM
CC(=O)Nc1sc2c(c1Cc1n[nH]c(=S)n1NC(=O)c1ccccc1)CCCC2,IC50,[2],572 nM
CC(=O)NNC(=O)CSc1nnc(Cc2c(NCCC(=O)O)sc3c2CCCC3)n1NC(=O)c1ccc(Cl)cc1,IC50,[2],352 nM
COC(=O)CSc1nnc(Cc2c(NC(=O)CCl)sc3c2CCCC3)n1NC(C)=O,Activity,[1],Non-toxic
same,IC50,[2],695 nM
COC(=O)CSc1nnc(Cc2c(NC(C)=O)sc3c2CCCC3)n1NC(C)=O,IC50,[2],389 nM
Nn1c(S)nnc1Cc1c(NC(=O)c2ccccc2)sc2c1CCCC2,Activity,[1],Non-toxic
same,IC50,[2],621 nM
COC(=O)CSc1nnc(Cc2c(NCCC(=O)O)sc3c2CCCC3)n1NC(C)=O,IC50,[2],733 nM
O=C(Cc1c(NC(=O)c2ccccc2)sc2c1CCCC2)NNC(=S)[S-].[K+],Activity,[1],Non-toxic
same,IC50,[2],373 nM
CC(=O)NNC(=O)CSc1nnc(Cc2c(NCCC(=O)O)sc3c2CCCC3)n1NC(=O)c1ccccc1,IC50,[2],467 nM
NNC(=O)CSc1nnc(Cc2c(NC(=O)CCl)sc3c2CCCC3)n1NC(=O)c1ccccc1,Ratio IC50,[3],13.2
same,Activity,[1],Non-toxic
same,IC50,[2],37 nM
same,IC50,[4],487 nM
